Results on six molecules are retold here after US8461171B2, “Hybrid opioid compounds and compositions” (QRxPHARMA Ltd., priority 2010, dated 2013).

Holding throughout (assay type): in vivo
Data set [1] concerns CD1 mice. The data set is described as follows: Oral antinociception in CD1 mice (tail flick), morphine/oxycodone alone, combined or as prodrugs. Conditions: for oral antinociceptive activity (in words): CD1 mice.
The test system of data set [2] is CD1 mice. The data set is described as follows: 24-hour tolerance study after icv administration in CD1 mice. Conditions: for MPE still present after 24 hours: 24 hours after icv administration.
Data set [3] deals with CD1 mice. The data set can be described thus: Intracerebroventricular (icv) antinociceptive activity in CD1 mice. Conditions: for Icv ED50 values: CD1 mice, confidence range in brackets.
Data set [4] concerns CD1 mice. The data set can be described thus: Behavioral observations after icv administration. The procedure:
These curves enabled the determination of ED50 values. […] Some behavioral observations are also reported.
This behavior was not observed 10 minutes post injection. […] The animals were active for about two hours. After 24 hours, the animals maintained about 20% MPE.

For the molecule `COc1ccc2c3c1O[C@H]1/C(=N/OCC(=O)O[C@H]4C=CC5C6Cc7ccc(O)c8c7[C@@]5(CCN6C)[C@H]4O8)CC[C@@]4(O)C(C2)N(C)CC[C@]314` (stereo partly shown) [MLN II-31], the maximum antinociception with CD1 mice [1] (10 mg/kg, 4 hours after oral administration) was 25%. The “oral antinociceptive activity (in words)” value in the data set on CD1 mice [1] (oral) was “weak antinociceptive activity”. For the same molecule, in the data set with CD1 mice [1] (oral, measured from 15 min to 24 hours), the antinociceptive activity is recorded as 7-20 % of MPE.

With `COc1ccc2c3c1O[C@H]1C(=NOC(=O)O[C@H]4C=CC5C6Cc7ccc(O)c8c7[C@@]5(CCN6C)[C@H]4O8)CC[C@@]4(O)C(C2)N(C)CC[C@]314` (stereo partly shown) [MLN II-45], in the data set with CD1 mice [1] (oral), the “oral antinociceptive activity (in words)” value is “the same activity as when oxycodone and morphine are administered together in a 1:1 ratio”.

`CN1CC[C@]23c4c5ccc(O)c4O[C@H]2[C@@H](NC(=O)COCCOCCn2cc(COCC(=O)N[C@H]4CC[C@@]6(O)C7Cc8ccc(O)c9c8[C@@]6(CCN7C)[C@H]4O9)nn2)CC[C@@]3(O)C1C5` [MLN II-83]: the “MPE still present after 24 hours” value in the data set on CD1 mice [2] stood at 20 ± 10 % MPE. Also, the “24-h Tolerance Study, outcome” value in the data set on CD1 mice [2] (icv) is on record as “seems to induce some tolerance”. Besides, the “24-h Tolerance Study, Day 1” value in the data set with CD1 mice [2] (icv, Day 1) stood at 67.95 ± 13.62. For the same molecule, the “24-h Tolerance Study, Day 2” value with CD1 mice [2] (icv, Day 2) was 48.35 ± 15.68. Moreover, in the data set with CD1 mice [3], the “peak time (pt), time to maximum effect” value was found to be 20 min and the “Icv ED50 values” is recorded as 0.190 nmol/mouse (0.065-0.558).

In the case of `CN1CC[C@]23c4c5ccc(O)c4O[C@H]2[C@@H](NC(=O)COCCOCc2cn(CCOCCOCC(=O)N[C@@H]4CC[C@@]6(O)C7Cc8ccc(O)c9c8[C@@]6(CCN7C)[C@H]4O9)nn2)CC[C@@]3(O)C1C5` [MLN II-120], the “animals showing barrel rolling and out stretched limbs” value with CD1 mice [4] (with 2 minutes of icv injection, not observed 10 minutes post injection) was “about 50%”. Moreover, in the data set on CD1 mice [2] (icv), the “24-h Tolerance Study, outcome” value is “No tolerance”. In the data set on CD1 mice [2] (icv, Day 1), the “24-h Tolerance Study, Day 1” value was found to be 95.65 ± 4.65. Further, the “24-h Tolerance Study, Day 2” value in the data set with CD1 mice [2] (icv, Day 2) is given as 91.38 ± 13.08. In the data set with CD1 mice [3], the “peak time (pt), time to maximum effect” value stood at 10 min and the “Icv ED50 values” is given as 0.571 nmol/mouse (0.423-0.770).

`CN1CC[C@]23c4c5ccc(O)c4O[C@H]2[C@@H](NC(=O)COCCOCCOCc2cn(CCOCCOCC(=O)N[C@H]4CC[C@@]6(O)C7Cc8ccc(O)c9c8[C@@]6(CCN7C)[C@H]4O9)nn2)CC[C@@]3(O)C1C5` [MLN II-121]: in the data set on CD1 mice [4] (after icv administration), the behavioral observations result is “pacing and had straub tails”; the “time the animals were active” value is “about two”. The “MPE still present after 24 hours” value with CD1 mice [2] is “about 20 % MPE”. Moreover, the “MPE still present after 24 hours” value in the data set with CD1 mice [2] (listed as MLN II- 121) came out at 23.06 ± 4.30 % MPE. Besides, the “48 hour tolerance test, outcome” value with CD1 mice [2] (icv, 48 hour test) was “No tolerance”. The “48 hour tolerance test, Day 1” value in the data set on CD1 mice [2] (icv, 48 hour test, Day 1) came to 90.00 ± 10.69. Besides, the “48 hour tolerance test, Day 2” value in the data set on CD1 mice [2] (icv, 48 hour test, Day 2) stood at 80.41 ± 12.06. Besides, in the data set on CD1 mice [3], the “peak time (pt), time to maximum effect” value was 10 min and the “Icv ED50 values” was 0.272 nmol/mouse (0.164-0.453).

Consider `CN1CC[C@]23c4c5ccc(O)c4O[C@H]2[C@@H](O)C=C[C@H]3[C@H]1C5` [Morphine, reference compound], for which, in the data set with CD1 mice [3], the “peak time (pt), time to maximum effect” value amounted to 10 min; the “peak time [pt]” value is 10 ′; the “Icv ED50 values” was 2.68 nmol/mouse.
